Consider one compound from patent US9302991B2, “Arylamide derivatives as TTX-S blockers” (RaQualia Pharma Inc., priority 2010, dated 2016).

For the assay, the system named is Paw incision-induced static allodynia in rats. The experiment in a line: Paw incision-induced static allodynia in rats. Type of assay: in vivo, Sprague-Dawley rats. Particulars: 30 mg/kg per os. How it is done:
Paw Incision-Induced Static Allodynia in Rats
Male Sprague-Dawley rats at 7 weeks old are purchased from Charles River Japan Inc., and housed in groups of two per cage under a 12-h light/dark cycle (lights on at 07:00) with access to food and water ad libitum. Paw incision-induced static allodynia is assessed by VFH test. Surgery is performed according to the procedure described by Brennan et al. (Pain 1996, 64: 493-501). The animals are initially anesthetized with 3-4% isoflurane/O2 mixture in an anesthetic chamber and maintained with 2-3% delivered through a nose cone. The plantar surface of the right hind paw is sterilized with 7.5% povidone-iodine solution. A 1-cm longitudinal incision is made with a number 11 blade, through skin and fascia of the plantar aspect of the paw, starting 0.5 cm from the proximal edge of the heel and extending toward the toes. The plantaris muscle is elevated using forceps and retracted. The muscle origin and insertion remain intact. After hemostasis with gentle pressure, the skin is apposed with 2 sutures of 5-0 nylon. The wound site is covered with Terramycin ointment, and the rats are allowed to recover in their cages with soft bedding. The animals are individually placed in a Plexiglas test chamber on an elevated grid to acclimate for 1 hour before the day of surgery. […] The PWT is measured at the appropriated time after compound administration.

For the compound `CC(=O)Nc1cc(C(=O)NC(C)c2ccc(OCC(F)(F)F)nc2)ccn1` (single isomer, unassigned; (-)) [Example 1, (−)-2-acetamido-N-(1-(6-(2,2,2-trifluoroethoxy)pyridin-3-yl)ethyl)isonicotinamide], the “activity in paw incision-induced static allodynia (PWT)” value is “significant activity”.
